Read-outs that look alike come from different tables or passages of the source.
Experiments:
E. coli = test: microbe, parasite or virus in culture; type: cell-based, Escherichia coli; conditions: for MIC: Escherichia coli
Procedure: (§1) In the following experiments, bacterial cells were cultured in 96-well microtiter plates in cation-adjusted Mueller-Hinton Broth (MHB) for 18 h at 37° C. The main strains used were E. coli (K-12 BW25113) (placed in stationary incubator) and S. aureus (Newman Strain) (incubated at 250 r.p.m). Knockout strains (ΔtolcC and ΔychM) were used from the Keio knockout collection (Baba et al., Construction of Escherichia coli K-12 in-frame, single-gene knockout mutants: the Keio collection. Mol Syst Biol 2, 2006 0008, doi:10.1038/msb4100050 (2006)). For MIC determination and checkerboard analyses, Clinical & Laboratory Standards Institute (CLSI) protocol was used. […] DiSC3 loading of S. aureus cells was performed as previously described (Farha et al., Collapsing the proton motive force to identify synergistic combinations against Staphylococcus aureus. Chemistry & biology 20, 1168-1178, doi:10.1016/j.chembiol.2013.07.006 (2013)). CCCP concentration of 20 μM was used. pH adjustments were made by addition of HCl or NaOH. INT assay and ATP bioluminescence assays were performed as previously described (Farha et al., Collapsing the proton motive force to identify synergistic combinations against Staphylococcus aureus. Chemistry & biology 20, 1168-1178, doi:10.1016/j.chembiol.2013.07.006 (2013)). For chemical-genomic studies, the Keio library was grown overnight in cation-adjusted MHB broth, in 384-well plates. From these, treatment plates (25 mM sodium bicarbonate, or a sterile water control) were inoculated and grown for 15 hours at 37° C., in a stationary incubator. Data was normalized according to Mangat et al (Mangat et al., Rank ordering plate data facilitates data visualization and normalization in high-throughput screening. J Biomol Screen 19, 1314-1320, doi:10.1177/1087057114534298 (2014)), with gene products and GO terms mined from EcoCyc. The GFP promoter library (Keseler et al., EcoCyc: fusing model organism databases with systems biology. Nucleic Acids Res 41, D605-612, doi:10.1093/nar/gks1027 (2013)) was grown for 18 hours at ambient temperature with the same inoculation strategy as with the Keio collection. The analysis pipeline of Zaslaver et al (Zaslaver et al., A comprehensive library of fluorescent transcriptional reporters for Escherichia coli. Nat Methods 3, 623-628, doi:10.1038/nmeth895 (2006)) was used to generate maps of promoter activity, from which lists of promoters with increased or decreased activity were compiled.
(§2) Fold enhancement in MICs in the media supplemented with sodium bicarbonate is represented by a positive fold, whereas suppression of activity is represented by a negative fold.
(§3) The effect of sodium bicarbonate on the activity of additional antibacterial agents was investigated. Clinical isolates of various bacteria were obtained from the ATCC and the IHMA.
(§4) The effect of sodium bicarbonate on the activity of cationic antiseptic agents was investigated. Clinical isolates of various bacteria were obtained from the ATCC and the IHMA.

S. aureus = test: microbe, parasite or virus in culture; conditions: for MIC: Staphylococcus aureus, 18 h, read-out: MIC, S. aureus, MHB−
Procedure: as §1, §2, §3, §4

[1] = 18 h, MHB in the absence of sodium bicarbonate, read-out: MIC, E. coli, MHB−
[2] = 18 h, antibiotic agents, MHB in the absence of sodium bicarbonate, read-out: MIC, E. coli, MHB−
[3] = antibiotic agents, MHB in the absence of sodium bicarbonate
[4] = antibiotic agents, fold shift in MIC, MHB− vs MHB+

CC[C@H]1OC(=O)[C@H](C)[C@@H](O[C@H]2C[C@@](C)(OC)[C@@H](O)[C@H](C)O2)[C@H](C)[C@@H](O[C@@H]2O[C@H](C)C[C@H](N(C)C)[C@H]2O)[C@](C)(O)C[C@@H](C)[C@@H]2N[C@@H](COCCOC)O[C@H]([C@H]2C)[C@]1(C)O [Dirithromycin]
MIC (E. coli; [1]): 128 µg/mL
MIC (E. coli; E. coli, no salt, pH adjusted to 7.4, read-out: MIC of dirithromycin, control): 128 µg/mL
MIC, S. aureus, MHB+ (S. aureus): 0.5
MIC (S. aureus): 4 µg/mL

C[C@H]1c2cccc(O)c2C(=O)C2=C(O)[C@]3(O)C(=O)C(C(N)=O)=C(O)[C@@H](N(C)C)[C@@H]3[C@@H](O)[C@@H]21 [Doxycycline]
MIC (E. coli; [1]): 1 µg/mL
MIC, S. aureus, MHB+ (S. aureus): 2
MIC (S. aureus): 0.125 µg/mL

CCn1cc(C(=O)O)c(=O)c2cc(F)c(N3CCNCC3)nc21 [Enoxacin]
MIC (E. coli; [1]): 0.25 µg/mL
MIC, S. aureus, MHB+ (S. aureus): 2
MIC (S. aureus): 1 µg/mL

O=CN(O)CCCP(=O)(O)O [Fosmidomycin]
MIC (E. coli; [1]): 16 µg/mL
MIC, S. aureus, MHB+ (S. aureus): >64
MIC (S. aureus): > 64 µg/mL

CC(=O)O[C@H]1C[C@@]2(C)[C@@H](C[C@@H](O)[C@H]3[C@@]4(C)CC[C@@H](O)[C@@H](C)[C@@H]4CC[C@@]32C)/C1=C(\CCC=C(C)C)C(=O)O [Fusidic acid]
MIC, E. coli, MHB+ (E. coli): >128 μg of antimicrobial agent/mL of buffer
MIC (E. coli; [2]): > 128 µg/mL
MIC, S. aureus, MHB+ (S. aureus): 2 μg of antimicrobial agent/mL of buffer
MIC (S. aureus): 0.5 µg/mL

COc1c(N2CCNC(C)C2)c(F)cc2c(=O)c(C(=O)O)cn(C3CC3)c12 (stereo not shown) [Gatifloxacin]
MIC, E. coli, MHB+ (E. coli): 4 μg of antimicrobial agent/mL of buffer
MIC (E. coli; [2]): 16 µg/mL
MIC, S. aureus, MHB+ (S. aureus): 8 μg of antimicrobial agent/mL of buffer
MIC (S. aureus): 4 µg/mL

CCCCCCCCCCCCCCCC[N+](C)(C)C.[Br-] [Hexadecyltrimethylammonium bromide]
MIC, E. coli, MHB (E. coli): 32 μg of antimicrobial agent/mL of buffer
MIC, E. coli, MHB+ (E. coli): 8 μg of antimicrobial agent/mL of buffer
MIC, S. aureus, MHB (S. aureus): 0.5 μg of antimicrobial agent/mL of buffer
MIC, S. aureus, MHB+ (S. aureus): 0.25 μg of antimicrobial agent/mL of buffer

CN[C@H]1C[C@@H](N)[C@H](O)[C@@H](O[C@@H]2O[C@H](CO)[C@H](O)[C@@H]3OC4(O[C@H]23)O[C@H]([C@@H](N)CO)[C@H](O)[C@H](O)[C@H]4O)[C@@H]1O (stereo partly shown) [Hygromycin B]
MIC, E. coli, MHB+ (E. coli): 16 μg of antimicrobial agent/mL of buffer
MIC, E. coli, MHB− (E. coli; [3]): 32 μg of antimicrobial agent/mL of buffer
Fold, E. coli (E. coli; [4]): 2
MIC, S. aureus, MHB− (S. aureus; [3]): >128 μg of antimicrobial agent/mL of buffer
MIC, S. aureus, MHB+ (S. aureus; antibiotic agents, MHB in the presence of 25 mM sodium bicarbonate): 64 μg of antimicrobial agent/mL of buffer
Fold, S. aureus (S. aureus; [4]): 2

NC[C@H]1O[C@H](O[C@H]2[C@H](O)[C@@H](O[C@H]3O[C@H](CO)[C@@H](O)[C@H](N)[C@H]3O)[C@H](N)C[C@@H]2N)[C@H](O)[C@@H](O)[C@@H]1O [Kanamycin]
MIC (E. coli; [1]): 4 µg/mL
MIC, S. aureus, MHB+ (S. aureus): 4
MIC (S. aureus): 8 µg/mL

C[C@H]1COc2c(N3CCN(C)CC3)c(F)cc3c(=O)c(C(=O)O)cn1c23 [Levofloxacin]
MIC (E. coli; [1]): 0.0313 µg/mL
MIC, S. aureus, MHB+ (S. aureus): 1
MIC (S. aureus): 0.5 µg/mL

CCC[C@@H]1C[C@@H](C(=O)N[C@@H]([C@H]2O[C@H](SC)[C@H](O)[C@@H](O)[C@H]2O)[C@@H](C)O)N(C)C1 [Lincomycin]
MIC, E. coli, MHB+ (E. coli): 32 μg of antimicrobial agent/mL of buffer
MIC (E. coli; [2]): > 128 µg/mL
MIC, S. aureus, MHB+ (S. aureus): 0.0625 μg of antimicrobial agent/mL of buffer
MIC (S. aureus): 0.25 µg/mL

CC(=O)NC[C@H]1CN(c2ccc(N3CCOCC3)c(F)c2)C(=O)O1 [Linezolid]
effect of 25 mM sodium bicarbonate on antibacterial activity (E. coli): remained largely unchanged
MIC (E. coli; [1]): 256 µg/mL
MIC, S. aureus, MHB+ (S. aureus): 0.625
effect of 25 mM sodium bicarbonate on antibacterial activity (S. aureus; S. aureus, result in words): remained largely unchanged
MIC (S. aureus): 0.625 µg/mL

CCn1cc(C(=O)O)c(=O)c2cc(F)c(N3CCNC(C)C3)c(F)c21 (stereo not shown) [Lomefloxacin]
MIC, E. coli, MHB+ (E. coli): 0.125 μg of antimicrobial agent/mL of buffer
MIC (E. coli; [2]): 0.5 µg/mL
MIC, S. aureus, MHB+ (S. aureus): 8 μg of antimicrobial agent/mL of buffer
MIC (S. aureus): 4 µg/mL

C/C(=C\C(=O)OCCCCCCCCC(=O)O)C[C@@H]1OC[C@H](C[C@@H]2O[C@H]2[C@@H](C)[C@H](C)O)[C@@H](O)[C@H]1O [Mupirocin]
MIC, E. coli, MHB+ (E. coli): 128 μg of antimicrobial agent/mL of buffer
MIC (E. coli; [2]): 128 µg/mL
MIC, S. aureus, MHB+ (S. aureus): 2 μg of antimicrobial agent/mL of buffer
MIC (S. aureus): 0.5 µg/mL

CC1CCc2c(N3CCC(O)CC3)c(F)cc3c(=O)c(C(=O)O)cn1c23 (stereo not shown) [Nadifloxacin]
MIC, E. coli, MHB+ (E. coli): 32 μg of antimicrobial agent/mL of buffer
MIC (E. coli; [2]): 8 µg/mL
MIC, S. aureus, MHB+ (S. aureus): 0.5 μg of antimicrobial agent/mL of buffer
MIC (S. aureus): 0.12 µg/mL

CCOc1ccc2ccccc2c1C(=O)N[C@@H]1C(=O)N2[C@@H]1SC(C)(C)[C@@H]2C(=O)O [Nafcillin]
MIC, E. coli, MHB+ (E. coli): 32 μg of antimicrobial agent/mL of buffer
MIC (E. coli; [2]): 16 µg/mL
MIC, S. aureus, MHB+ (S. aureus): 1 μg of antimicrobial agent/mL of buffer
MIC (S. aureus): 0.25 µg/mL

CCn1cc(C(=O)O)c(=O)c2ccc(C)nc21 [Nalidixic acid]
effect of 25 mM sodium bicarbonate on antibacterial activity (E. coli): suppressed
MIC (E. coli; [1]): 2 µg/mL
MIC, S. aureus, MHB+ (S. aureus): 32
MIC (S. aureus): > 8 µg/mL

CCn1cc(C(=O)O)c(=O)c2cc(F)c(N3CCNCC3)cc21 [Norfloxacin]
MIC (E. coli; [1]): 0.125 µg/mL
MIC, S. aureus, MHB+ (S. aureus): 1
MIC (S. aureus): 0.5 µg/mL

Cc1onc(-c2ccccc2)c1C(=O)N[C@@H]1C(=O)N2[C@@H]1SC(C)(C)[C@@H]2C(=O)O [Oxacillin]
MIC (E. coli; [1]): 256 µg/mL
MIC, S. aureus, MHB+ (S. aureus): 1
MIC (S. aureus): 0.0625 µg/mL

NC[C@@H]1O[C@H](O[C@H]2[C@@H](O)[C@H](O[C@@H]3[C@@H](O)[C@H](N)C[C@H](N)[C@H]3O[C@H]3O[C@H](CO)[C@@H](O)[C@H](O)[C@H]3N)O[C@@H]2CO)[C@H](N)[C@@H](O)[C@@H]1O [Paromomycin]
MIC (E. coli; [1]): 2 µg/mL
MIC, S. aureus, MHB+ (S. aureus): 2
MIC (S. aureus): 2 µg/mL

CCN1CCN(C(=O)N[C@@H](C(=O)N[C@@H]2C(=O)N3[C@@H]2SC(C)(C)[C@@H]3C(=O)O)c2ccccc2)C(=O)C1=O [Piperacillin]
MIC (E. coli; [1]): 2 µg/mL
MIC, S. aureus, MHB+ (S. aureus): 1
MIC (S. aureus): 0.25 µg/mL

C=C[C@]1(C)C[C@@H](OC(=O)CO)[C@]2(C)[C@H](C)CC[C@]3(CCC(=O)[C@H]32)[C@@H](C)[C@@H]1O [Pleuromutilin]
MIC, E. coli, MHB+ (E. coli): >128 μg of antimicrobial agent/mL of buffer
MIC (E. coli; [2]): > 128 µg/mL
MIC, S. aureus, MHB+ (S. aureus): 1 μg of antimicrobial agent/mL of buffer
MIC (S. aureus): 1 µg/mL

CC(C)C[C@H](NC(=O)[C@H](CCCNC(=N)N)NC(=O)CNC(=O)CNC(=O)[C@@H](N)CCCNC(=N)N)C(=O)N[C@H]1CSSC[C@@H](C(=O)N[C@H](C(=O)NCC(=O)N[C@@H](CCCNC(=N)N)C(N)=O)C(C)C)NC(=O)[C@H](C(C)C)NC(=O)[C@@H]2CSSC[C@H](NC(=O)[C@H](Cc3ccc(O)cc3)NC1=O)C(=O)N[C@@H](CCCNC(=N)N)C(=O)N[C@@H](CCCNC(=N)N)C(=O)N[C@@H](CCCNC(=N)N)C(=O)N[C@@H](Cc1ccccc1)C(=O)N2 [Protegrin]
enhancement of antimicrobial activity in the presence of bicarbonate (E. coli): 8 fold
enhancement of antimicrobial activity in the presence of bicarbonate (S. aureus; S. aureus, 25 mM sodium bicarbonate): 8 fold

CO[C@H]1/C=C/O[C@@]2(C)Oc3c(C)c(O)c4c(O)c(c(/C=N/N5CCN(C)CC5)c(O)c4c3C2=O)NC(=O)/C(C)=C\C=C\[C@H](C)[C@H](O)[C@@H](C)[C@@H](O)[C@@H](C)[C@H](OC(C)=O)[C@@H]1C [Rifampicin]
MIC (E. coli; [1]): 32 µg/mL
MIC, S. aureus, MHB+ (S. aureus): 0.031
MIC (S. aureus): 0.0078 µg/mL

C[C@@H]1CN(c2c(F)c(N)c3c(=O)c(C(=O)O)cn(C4CC4)c3c2F)C[C@H](C)N1 [Sparfloxacin]
MIC, E. coli, MHB+ (E. coli): 32 μg of antimicrobial agent/mL of buffer
MIC (E. coli; [2]): 16 µg/mL
MIC, S. aureus, MHB+ (S. aureus): 0.25 μg of antimicrobial agent/mL of buffer
MIC (S. aureus): 0.125 µg/mL

CN[C@@H]1[C@H](O)[C@H](NC)[C@H]2O[C@@]3(O)C(=O)C[C@@H](C)O[C@H]3O[C@@H]2[C@H]1O [Spectinomycin]
MIC (E. coli; [1]): 16 µg/mL
MIC, S. aureus, MHB+ (S. aureus): 8
MIC (S. aureus): 64 µg/mL

From US11400106B2, “Methods for inhibiting microbe growth” (priority 2018, dated 2022)
